This note sets out measurements from ChEMBL document CHEMBL2095176, “GSK Tuberculosis Screening Data”.

Converted amounts (≈) assume the structure as drawn.

This assay has as its system Mycobacterium tuberculosis variant bovis BCG. The assay is described as follows: microbe, parasite or virus in culture. Type of assay: functional.
Turning to `COc1ccc2nc(C)cc(OCC(=O)Nc3cc(C)cc(C)c3)c2c1`, the MIC90 is 0.5 µM (≈ 0.175 µg/mL).
The value for `O=c1cc(N2CCCNCC2)c(Cl)nn1CCCNS(=O)(=O)c1cccc(-c2ccccc2)c1` was 4.3 µM (≈ 2.16 µg/mL).
The value for `NC(=O)c1ccc(-c2cccc(OCCNCCc3cccc(F)c3)c2)cc1` was 3.1 µM (≈ 1.17 µg/mL).
Consider `COc1cc(C2c3c(-c4ccccc4)n[nH]c3C(=O)N2c2ccc(Cl)cc2)ccc1O` (stereo unspecified), for which the MIC90 was determined as 5.4 µM (≈ 2.33 µg/mL).
For the compound `CCCc1cc(N2CCN(CC#N)CC2)n2ncc(-c3ccccc3)c2n1`, the MIC90 came out at 5.1 µM (≈ 1.84 µg/mL).
Regarding `O=c1cc(N2CCCNCC2)c(Cl)nn1CCCNS(=O)(=O)c1ccc(-c2ccccc2)cc1`, the MIC90 turned out to be 4.6 µM (≈ 2.31 µg/mL).
To `COc1cccc(-c2nc3c(N4CCCC4)cccc3n2CC2CCCN2)n1.O=C(O)C(F)(F)F` (stereo unspecified) belongs 5.8 µM; to `N=C(N)c1ccc(CCN2CCC(c3nc(COCC(F)(F)F)c(-c4ccc(F)cc4)o3)CC2)cc1.O=C(O)C(F)(F)F.O=C(O)C(F)(F)F`, 8.2 µM; to `Cc1ccccc1CN1CCC(O)(c2ccc(Cl)c(C(F)(F)F)c2)CC1`, 4.3 µM (≈ 1.65 µg/mL).
The value for `C[C@@H]1CN(c2ccc(C#N)c(C(F)(F)F)c2)CCN1` was 4.2 µM (≈ 1.13 µg/mL); that for `Cc1cnc(N2CCN[C@@H](Cc3ccccc3)C2)nc1Oc1ccc(-n2ccnc2)cc1.O=C(O)C(F)(F)F` was 8.1 µM; that for `Cc1ccc2sc(N(CCCn3ccnc3)C(=O)c3cccs3)nc2c1C` was 9.5 µM (≈ 3.77 µg/mL).
To `Cc1cc(C(=O)Nc2nc(C)c(C)s2)c2c(C)nn(C(C)C)c2n1` belongs 5.5 µM (≈ 1.89 µg/mL); to `CN(CCOc1cccc(-c2ccc(C(=O)N3CCCC3)cc2)c1)Cc1cc(-c2ccccc2)no1`, 3.1 µM (≈ 1.49 µg/mL); to `CN1CCCN(c2ncnc3sc(-c4ccccc4)cc23)CC1`, 7.4 µM (≈ 2.4 µg/mL).
For the compound `O=C(Cn1c(SCc2ccccc2F)nc2ccncc21)Nc1ccc(Br)cc1F`, the MIC90 amounted to 8.3 µM (≈ 4.06 µg/mL).
On to `CCn1c(=O)c(=O)[nH]c2cc(C(=O)Nc3ccccc3Nc3ccc(OC)cc3)ccc21`, for which the MIC90 was 0.9 µM (≈ 0.387 µg/mL).
To `c1ccc(-c2nc(N3CCCNCC3)c3ccccc3n2)cc1` belongs 2.7 µM (≈ 0.822 µg/mL); to `O=C(Nc1cccc(Cl)c1)NC12CC3CC(CC(C3)C1)C2`, 6.3 µM (≈ 1.92 µg/mL).
The value for `Cc1csc(NC(=O)CSc2nc(C)c(C)n2Cc2ccc(Cl)cc2)c1C#N` was 0.9 µM (≈ 0.388 µg/mL); that for `CN(C)c1ccc(NC(=O)Nc2cnsn2)cc1` was 3.2 µM (≈ 0.843 µg/mL); that for `COc1ccc(-c2ccc(Nc3cccc(S(=O)(=O)CCN(C)Cc4cccs4)c3)nc2)cn1` was 7.9 µM (≈ 3.91 µg/mL).
To `O=c1c2sc(-c3ccc(Cl)cc3)cc2ncn1-c1ccc(OCCN2CC[C@@H](F)C2)cc1` belongs 6.7 µM (≈ 3.15 µg/mL); to `CC(C)(C)OC(=O)n1cc(CN2CCC3(CC2)OCCc2sccc23)c2ccccc21`, 9.5 µM (≈ 4.17 µg/mL).
As to `c1cc2c(s1)CCOC21CCN(Cc2ccc3c(c2)OCCO3)CC1`, the MIC90 is 1.6 µM (≈ 0.572 µg/mL).
Turning to `O=C(O)C(F)(F)F.c1ccc2c(-c3ccc(CNCC4CCNC4)cc3)cncc2c1` (stereo unspecified), the MIC90 turned out to be 7.8 µM.
`COc1ccc(-c2ccc(Nc3cccc(S(=O)(=O)CCN(C)CCc4ccccn4)c3)nc2)cn1` returned an MIC90 of 7.3 µM (≈ 3.68 µg/mL).
To `CCCc1cc(-c2nc(-c3ccc4c(c3)OCO4)cs2)ccn1` belongs 6.7 µM (≈ 2.17 µg/mL); to `Cn1cc(NC(=O)c2cc(NC(=O)CNC(=N)N)cn2C)cc1C(=O)NCCC(=N)N` [NETROPSIN CHLORIDE], 3.6 µM; to `COc1ccc(-c2cncc(-c3cc(N4CCN(CCO)CC4)nc(-c4ccccc4)n3)c2)cc1`, 7.9 µM (≈ 3.69 µg/mL).
The value for `Cc1ccc(O)cc1Nc1ccnc2ccc(-c3cccc(CNCCN(C)C)c3)cc12` was 9.1 µM (≈ 3.88 µg/mL); that for `COCc1nc(N2CCNCC2)c2c(C)nn(-c3ccc(C)cc3)c2n1` was 3 µM (≈ 1.06 µg/mL); that for `O=C(NNC(=O)c1[nH]nc2ccccc12)c1ccco1` was 8.3 µM (≈ 2.24 µg/mL).
With `Brc1cncc(-c2cc(NCCCn3ccnc3)nc(-c3ccccc3)n2)c1`, the MIC90 is 7.6 µM (≈ 3.31 µg/mL).
`CSc1ccc(-c2nnc(NC(=O)c3cccc(F)c3)o2)cc1` yielded an MIC90 of 3.9 µM (≈ 1.28 µg/mL).
For `Cc1ccc(-c2nnc(C)c(N3CCCC3)n2)cc1`, the MIC90 was found to be 10 µM (≈ 2.54 µg/mL).
The value for `O=C(Nc1nc2c(F)cc(F)cc2s1)C1CCCN1S(=O)(=O)c1cccs1` (stereo unspecified) was 6.3 µM (≈ 2.71 µg/mL).
For `N#Cc1nc(-c2ccc(F)cc2)oc1S(=O)(=O)c1ccc(Br)cc1`, the MIC90 was 1.8 µM (≈ 0.733 µg/mL).
On to `CCN(CC)CCCn1c(Sc2ccnc(N3CCN(c4ccncc4)CC3)n2)nnc1-c1ccco1`, for which the MIC90 amounted to 2.8 µM (≈ 1.46 µg/mL).
To `Cc1ccc(SCCC(=O)Nc2nc(-c3ccccn3)cs2)cc1` belongs 4.4 µM (≈ 1.56 µg/mL); to `O=C(c1cccc(-c2noc(-c3ccccc3)n2)c1)N1CCCCC1CCO` (stereo unspecified), 0.9 µM (≈ 0.34 µg/mL); to `CC(C)OC(=O)COc1ccc(-c2cnc(N(C)CCc3ccncc3)nc2)cc1`, 8.5 µM (≈ 3.46 µg/mL).
In the case of `Clc1ccc(OCc2noc(CC3CCN(CCOCc4ccccc4)C3)n2)cc1` (stereo unspecified), the MIC90 was found to be 6 µM (≈ 2.57 µg/mL).
To `N[C@@H]1CCN(c2nc(-c3ccccc3)nc3ccccc23)C1` belongs 1.4 µM (≈ 0.407 µg/mL); to `O=C(Nc1nncs1)c1c(O)c2ccccc2n(Cc2ccccc2)c1=O`, 6.9 µM (≈ 2.61 µg/mL); to `O=C(NC1CCCCC1)c1cc2cc(OC(F)(F)F)ccc2[nH]1`, 6.4 µM (≈ 2.09 µg/mL).
As for `O=C(NC1CCN(Cc2ccsc2)C1)c1sccc1-c1cccc(F)c1` (stereo unspecified), the MIC90 is 7.3 µM (≈ 2.82 µg/mL).
To `O=C(Nc1ccccc1-c1nc(Br)cs1)OCC1CCNCC1` belongs 8 µM (≈ 3.17 µg/mL); to `Cc1ccc(C2(c3ccc(C)cc3)NC(=O)N(CC(=O)N3CCC(Cc4ccccc4)CC3)C2=O)cc1`, 6.2 µM (≈ 3.07 µg/mL); to `Cn1c(=O)c2c([S+](C)[O-])snc2n(C)c1=O` (stereo unspecified), 5.6 µM (≈ 1.45 µg/mL).
To `CCS(=O)(=O)c1cccc(C(=O)Nc2nc(-c3ccccn3)cs2)c1` belongs 5.2 µM (≈ 1.94 µg/mL).
As to `Cc1cc(/C=C/c2cccc(C(=O)O)c2)cc(Cl)c1OC[C@@H]1CCCN1C`, the MIC90 came to 9.5 µM (≈ 3.67 µg/mL).
With `COc1cc(CN2CCCC(c3cc(C(F)(F)F)n4nc(C)cc4n3)C2)ccc1O` (stereo unspecified), the MIC90 was determined as 6 µM (≈ 2.52 µg/mL).
As for `Fc1ccc(-c2cccc3ccc(N4CCNCC4)nc23)cc1`, the MIC90 came to 8.5 µM (≈ 2.61 µg/mL).
Consider `COc1ccc(-c2cc3nccc(C4CCNCC4)n3n2)cc1`, for which the MIC90 came out at 5.7 µM (≈ 1.76 µg/mL).
The value for `CC(Oc1ccccc1)C(=O)Nc1nc(-c2ccccn2)cs1` (stereo unspecified) was 5.4 µM (≈ 1.76 µg/mL); that for `COc1ccc(Nc2ccccc2N)cc1Cl` was 2.3 µM (≈ 0.572 µg/mL).
To `O=C(C=Cc1ccccc1)N1CCN(Cc2ccc3c(c2)OCO3)CC1` belongs 2.9 µM (≈ 1.02 µg/mL); to `c1ccc(-c2csc(Nc3nc4cc5c(cc4s3)OCO5)n2)nc1`, 1.5 µM (≈ 0.532 µg/mL).
In turn, `Cc1csc2nc(Cc3ccc(C(=O)c4ccc(C(=O)OCc5ccccc5)cc4)cc3)oc(=O)c12` yielded an MIC90 of 2.3 µM (≈ 1.14 µg/mL).
Compound `Cc1ccc(SCCNC(=O)c2c(-c3ccccc3)noc2C)cc1` returned an MIC90 of 8.7 µM (≈ 3.07 µg/mL).
`O=C(Nc1cccc(C(=O)N2CCCC(c3nc4ccccc4s3)C2)c1)c1cccs1` (stereo unspecified) had an MIC90 of 3.6 µM (≈ 1.61 µg/mL).
The value for `COC(=O)COc1ccc(CCn2nnc(-c3ccc(C(F)(F)F)cc3)n2)cc1` was 7.6 µM (≈ 3.09 µg/mL); that for `N#Cc1ccc2c(c1)CCN(CCCSc1ccnc3cc(C(F)(F)F)ccc13)CC2` was 3.2 µM (≈ 1.41 µg/mL).
In turn, `Cc1ccc2c(CC(=O)Nc3nc(-c4ccccn4)cs3)coc2c1` registered an MIC90 of 10 µM (≈ 3.49 µg/mL).
The value for `CCOc1cc(CC)c(Br)cc1C(=O)Nc1cccc2c1CCN(C)C2` was 4.6 µM (≈ 1.92 µg/mL).
`N#Cc1ccc(-c2ccc(OCC(=O)NNC(=O)c3ccco3)cc2)cc1` displayed an MIC90 of 2.8 µM (≈ 1.01 µg/mL).
With `CSc1ccc(C(=O)Nc2nnc(-c3ccc4c(c3)CCCC4)o2)cc1`, the MIC90 is 7 µM (≈ 2.56 µg/mL).
With `CS(=O)(=O)N1CCN(c2ccccc2NC(=O)C(Cl)(Cl)Cl)CC1`, the MIC90 was 3.9 µM (≈ 1.56 µg/mL).
In turn, `Fc1ccc(F)c(-c2noc(CC3CCN(Cc4ccsc4)C3)n2)c1` (stereo unspecified) came in with an MIC90 of 3.5 µM (≈ 1.26 µg/mL).
To `O=C(CCC1CCCCC1)Nc1cccc(-c2nnc(-c3ccco3)o2)c1` belongs 9.2 µM (≈ 3.36 µg/mL).
Consider `CC(C)c1ccc(NC(=O)c2ccc(C(=O)NC3CCCNC3)cc2)cc1` (stereo unspecified), for which the MIC90 is 6.2 µM (≈ 2.27 µg/mL).
To `Cc1cc(=O)[nH]c(-n2nc(C)cc2NC(=O)COc2ccccc2C)n1` belongs 6.9 µM (≈ 2.44 µg/mL); to `COc1ccc(-c2nc(-c3cccc(NC(=O)Cc4ccc(F)cc4)c3)no2)cc1OC`, 2.3 µM (≈ 0.997 µg/mL).
To `CN(CCOc1cccc(-c2ccc(C(=O)N3CCCC3)cc2)c1)Cc1ccc(F)cc1` belongs 7.8 µM (≈ 3.37 µg/mL).
Regarding `O=C(CCc1ccsc1)Nc1nc(-c2ccccn2)cs1`, the MIC90 came to 9.4 µM (≈ 2.96 µg/mL).
The value for `COc1cc(OC)cc(C(=O)Nc2nc(-c3ccccn3)cs2)c1` was 3.4 µM (≈ 1.16 µg/mL).
Regarding `COc1cc(OC)c(C(=O)Nc2cccc3c2CCN(C)C3C)cc1Br` (stereo unspecified), the MIC90 stood at 5.5 µM (≈ 2.31 µg/mL).
The compound `COc1ccc(C(=O)Nc2nnc(-c3ccc4c(c3)CCCC4)o2)cc1` came in with an MIC90 of 3 µM (≈ 1.05 µg/mL).
The value for `c1ccc2nc(CN3CCC4(CC3)OCCc3sccc34)ccc2c1` was 9.1 µM (≈ 3.19 µg/mL); that for `CCOc1ncccc1C(=O)Nc1ccccc1Nc1ccccc1` was 6.4 µM (≈ 2.13 µg/mL); that for `CC(C)c1ccc(OCC(=O)NNC(=O)c2ccncc2)cc1` was 6.5 µM (≈ 2.04 µg/mL).
To `Cn1nc(C(=O)N2CCc3sccc3C2c2ccccc2)c2ccccc2c1=O` (stereo unspecified) belongs 2 µM (≈ 0.803 µg/mL); to `O=C(Nc1nc(-c2ccccn2)cs1)c1cccc(F)c1`, 2 µM (≈ 0.599 µg/mL); to `Cc1cc(OCC(=O)NCc2ccccc2)c2cc(Br)ccc2n1`, 4.6 µM (≈ 1.77 µg/mL).
Take `CN(C)CCOc1ccc2c(c1)N(C(=O)Cc1ccc(Cl)c(Cl)c1)CC2`: the MIC90 turned out to be 9.9 µM (≈ 3.89 µg/mL).
As to `Cc1ccc(Nc2cc(C)nn2-c2nc(C)cc(O)n2)cc1`, the MIC90 worked out at 0.5 µM (≈ 0.148 µg/mL).
`O=C(Nc1ccccc1-c1nc(Cl)cs1)OCCOC1CCNCC1` had an MIC90 of 7.6 µM (≈ 2.9 µg/mL).
To `CSc1ccc(C(=O)Nc2nc(-c3ccccn3)cs2)cc1` belongs 4.4 µM (≈ 1.44 µg/mL); to `CCOc1ccc(C(=O)Nc2nc(-c3ccccn3)cs2)cc1OCC`, 5.6 µM (≈ 2.07 µg/mL); to `COc1ccc(Cc2nn3c(-c4ccc(C)cc4)nnc3s2)cc1`, 7.5 µM (≈ 2.52 µg/mL).
To `c1ccc(Cc2nnc(Sc3ccnc(N4CCN(c5ccncc5)CC4)n3)n2CCN2CCOCC2)cc1` belongs 9.9 µM (≈ 5.38 µg/mL).
As to `FC(F)(F)c1ccc2c(N3CCCNCC3)ncc(-c3ccccc3)c2n1`, the MIC90 was 4.8 µM (≈ 1.79 µg/mL).
The value for `O=C(Nc1nc(-c2ccccn2)cs1)c1ccc(-c2ccccc2F)o1` was 5.2 µM (≈ 1.9 µg/mL).
`Cc1nn(Cc2ccccc2)c(Cl)c1C(=O)NC1CCCCCC1` returned an MIC90 of 3.2 µM (≈ 1.11 µg/mL).
To `O=C(c1cc2ccccc2o1)N1CCN(Cc2ccc3c(c2)OCO3)CC1` belongs 2.7 µM (≈ 0.984 µg/mL).
